The subject of assay [1] is haloperidol-induced catalepsy. The note with it: cited from earlier work.
Another assay concerns the target T1, Human M4 (Homo sapiens, UniProt P08173).
T1 construct: Human or rat M4 cDNA, along with the chimeric G protein Gqi5, were transfected into Chinese hamster ovary (CHO-K1) cells; expressed in transfected cells; host or cells: CHO-K1 (Chinese hamster ovary, ATCC), stably co-expressing Gqi5
T1 sequence (P08173 1-479): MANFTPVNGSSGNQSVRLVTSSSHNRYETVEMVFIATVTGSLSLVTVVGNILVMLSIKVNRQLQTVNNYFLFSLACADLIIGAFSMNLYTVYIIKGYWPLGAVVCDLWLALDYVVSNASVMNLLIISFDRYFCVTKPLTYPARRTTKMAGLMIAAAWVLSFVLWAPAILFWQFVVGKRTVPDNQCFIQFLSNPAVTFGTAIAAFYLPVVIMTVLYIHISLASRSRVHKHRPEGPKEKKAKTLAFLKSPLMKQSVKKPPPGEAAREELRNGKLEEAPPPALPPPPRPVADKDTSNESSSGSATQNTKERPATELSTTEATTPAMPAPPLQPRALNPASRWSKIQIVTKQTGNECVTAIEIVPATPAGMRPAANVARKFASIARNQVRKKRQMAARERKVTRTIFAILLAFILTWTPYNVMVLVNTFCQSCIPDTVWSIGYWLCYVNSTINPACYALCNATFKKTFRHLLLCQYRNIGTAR
Description: mAChR M4 cell-based functional assay (calcium flux, decrease of EC80 acetylcholine response). The note with it: for remaining activity at 30 µM: % ACh maximum at 30 μM, read-out: Human M4 Emin; for IC50: M4/Gqi5/CHO-K1 cells, decrease of response to EC80 acetylcholine. In short, it runs like this: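 IC50 reflects inhibition of an EC80 acetylcholine calcium response, fitted by four-parameter logistic equation. Fluo-4-loaded M4/Gqi5 CHO-K1 cells received compound (10-point, 1:3 series) 2 s into the FDSS read, then EC20 acetylcholine at 143 s and EC80 at 268 s.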
Background: A change in cytosolic calcium serves as a functional read-out for many receptors and channels.

Turning to `CN1[C@@H]2C[C@@H](OC(=O)[C@H](CO)c3ccccc3)C[C@H]1[C@@H]1O[C@@H]12` [scopolamine], the “reduction of catalepsy induced by haloperidol” value in assay [1] (M4KO mice) was “ineffective”. Moreover, the “reversal of catalepsy induced by haloperidol” value in assay [1] (WT mice) is reported as “completely reversed”.
As usually defined, the IC50 is the midpoint of a concentration-inhibition curve. Turning to `Fc1ccc(F)c(-c2cc(C(F)(F)F)c(N[C@H]3C[C@@H]4CN(C[C@@H]5COCCO5)C[C@@H]4C3)nn2)c1` [Example 69, (3aR,5s,6aS)-2-(((R)-1,4-dioxan-2-yl)methyl)-N-(6-(2,5-difluorophenyl)-4-(trifluoromethyl)pyridazin-3-yl)octahydro-cyclopenta[c]pyrrol-5-amine], on Human M4, the remaining activity at 30 µM was 3% and the half-inhibitory concentration (IC50) turned out to be 242 nM.
For the compound `[2H]C([2H])(C1CCOCC1)N1C[C@H]2C[C@H](Nc3nnc(-c4cc(F)cc(F)c4F)cc3C(F)(F)F)C[C@H]2C1` [Example 124, (3aR,5s,6aS)-2-((tetrahydro-2H-pyran-4-yl)methyl-d2)-N-(4-(trifluoromethyl)-6-(2,3,5-trifluorophenyl)pyridazin-3-yl)octahydrocyclopenta[c]pyrrol-5-amine], on Human M4, the remaining activity at 30 µM was found to be 3% and the IC50 worked out at 173 nM.
Take `Cc1ccc(F)cc1-c1cc(C(F)(F)F)c(N[C@H]2C[C@@H]3CN(C[C@@H]4COCCO4)C[C@@H]3C2)nn1` [Example 21, (3aR,5s,6aS)-2-(((R)-1,4-dioxan-2-yl)methyl)-N-(6-(5-fluoro-2-methylphenyl)-4-(trifluoromethyl)pyridazin-3-yl)octahydro-cyclopenta[c]pyrrol-5-amine]: on Human M4, the remaining activity at 30 µM was 3% and the IC50 is 31.2 nM.
In the case of `COc1ccc(-c2cc(C(F)(F)F)c(N[C@H]3C[C@@H]4CN(CC5CCOCC5)C[C@@H]4C3)nn2)c(F)c1` [Example 61, (3aR,5s,6aS)-N-(6-(2-fluoro-4-methoxyphenyl)-4-(trifluoromethyl)pyridazin-3-yl)-2-((tetrahydro-2H-pyran-4-yl)methyl)octahydro-cyclopenta[c]pyrrol-5-amine], at Human M4, the remaining activity at 30 µM was 3% and the concentration for half-maximal inhibition (IC50) turned out to be 233 nM.
Take `Cc1ccc(F)cc1-c1cc(C(F)(F)F)c(O[C@H]2C[C@@H]3CN(CC4CCOCC4)C[C@@H]3C2)nn1` [Example 132, (3aR,5s,6aS)-5-((6-(5-fluoro-2-methylphenyl)-4-(trifluoromethyl)pyridazin-3-yl)oxy)-2-((tetrahydro-2H-pyran-4-yl)methyl)octahydro-cyclopenta[c]pyrrole]: at Human M4, the remaining activity at 30 µM stood at 3% and the half-maximal inhibitory concentration (IC50) is 592 nM.
For `CCOc1ccc(-c2cc(C(F)(F)F)c(N[C@H]3C[C@@H]4CN(CC5CCOCC5)C[C@@H]4C3)nn2)c(C)c1` [Example 84, (3aR,5s,6aS)-N-(6-(4-ethoxy-2-methylphenyl)-4-(trifluoromethyl)pyridazin-3-yl)-2-((tetrahydro-2H-pyran-4-yl)methyl)octahydro-cyclopenta[c]pyrrol-5-amine] the same measures were 3% and 73.7 nM.
Consider `Cc1ccc(F)cc1-c1cc(C(F)(F)F)c(N[C@H]2C[C@@H]3CN(C[C@H]4CC5CCC4O5)C[C@@H]3C2)nn1` (stereo partly drawn) [Example 25, (3aR,5s,6aS)-2-(((2R)-7-oxabicyclo[2.2.1]heptan-2-yl)methyl)-N-(6-(5-fluoro-2-methylphenyl)-4-(trifluoromethyl)pyridazin-3-yl)octahydro-cyclopenta[c]pyrrol-5-amine], for which, on Human M4, the remaining activity at 30 µM came to 2% and the IC50 came to 11.1 nM.
Taken in the same sequence, the figures for `Cc1cc(C)cc(-c2cc(C(F)(F)F)c(N[C@H]3C[C@@H]4CN(Cc5ccccn5)C[C@@H]4C3)nn2)c1` [Example 104, (3aR,5s,6aS)-N-(6-(3,5-dimethylphenyl)-4-(trifluoromethyl)pyridazin-3-yl)-2-(pyridin-2-ylmethyl)octahydro-cyclopenta[c]pyrrol-5-amine] were 3% and 328 nM.
For `[2H]C([2H])(C1CCOCC1)N1C[C@H]2C[C@H](Nc3nnc(-c4cc(F)ccc4C(F)(F)F)cc3C(F)(F)F)C[C@H]2C1` [Example 99, (3aR,5s,6aS)-N-(6-(5-fluoro-2-(trifluoromethyl)phenyl)-4-(trifluoromethyl)pyridazin-3-yl)-2-((tetrahydro-2H-pyran-4-yl)methyl-d2)octahydro-cyclopenta[c]pyrrol-5-amine] the same measures were 2% and 54.7 nM.
For `[2H]C([2H])(C1CCOCC1)N1C[C@H]2C[C@H](Nc3nnc(-c4cnn(C)c4)cc3C(F)(F)F)C[C@H]2C1` [Example 109, (3aR,5s,6aS)-N-(6-(1-methyl-1H-pyrazol-4-yl)-4-(trifluoro-methyl)pyridazin-3-yl)-2-((tetrahydro-2H-pyran-4-yl)methyl-d2)octahydro-cyclopenta[c]pyrrol-5-amine] the same measures were 3% and 71.8 nM.

The values above are taken from patent US20230183219A1, “CONDENSED SUBSTITUTED HYDROPYRROLES AS ANTAGONISTS OF THE MUSCARINIC ACETYLCHOLINE RECEPTOR M4” (Vanderbilt University, priority 2020, published 2023).
